From a melting point compilation (Tetko et al.; mined from patent text by program, amines drawn as free bases though some values may be those of a salt)

Compared with `CSc1ccc2c(c1)C=C(C(=O)O)C(C(F)(F)F)O2` (centres undefined), `O=C(O)c1ccc(F)c2c1OCC=C2` is higher in melting point: 166 to 168 °C for the first, 187 to 189 °C for the second.

Compared with `CN1Cc2ccccc2[C@H]2c3cccc4[nH]cc(c34)C[C@@H]21` (relative stereo), `CN1C(c2cnc3ccccc3c2)c2ccccc2CC1(C)C` (centres undefined) is lower in melting point: 215 °C for the first, 116 to 118 °C for the second.

First: C#CCN1CCCc2cccc(CSc3nc4ccccc4[nH]3)c21
Second: COc1ccccc1N1CCc2c1c1cccc(C)c1[nH]c2=O
The melting point of the first is lower: 122 °C for the first, 193 to 195 °C for the second.

Compared with `COC(=O)c1cnn(-c2cc(Cl)cc(Cl)c2)c1C(N)=O`, `CC1(C(O)=Nc2cc(Cl)cc(Cl)c2)CCC1C(=O)O` (centres undefined) is lower in melting point: 220 to 222 °C for the first, 110 to 111 °C for the second.

Compared with `CCc1c(C(=O)c2cc(C)cc(C)c2)n(C/C=C\c2ccccc2)c(=O)[nH]c1=O`, `Cc1cccc(-c2ccc3c(c2)c2c(n3Cc3ccccc3)COC(=O)C2=O)c1` is higher in melting point: 98 to 99 °C for the first, 225 to 226 °C for the second.

Going from `CC(C)(C)OC(=O)NCC(=O)N1[C@@H](C(=O)OC(C)(C)C)C[C@H](C(=O)O)[C@H]1c1ccccc1` (racemic) to `CC(C)(C)c1cc(CCc2ccccc2NC(=O)NCCCc2cccs2)cc(C(C)(C)C)c1O`, the melting point rises from 105 °C to 150 °C.

First: COC(=O)c1ncc(-c2ccccc2)nc1N
Second: COC(=O)c1ncc(C(=O)NS(=O)(=O)c2ccccc2)cc1OC
The melting point of the first is higher: 228 °C for the first, 160 to 163 °C for the second.

`O=C1CSC(c2ccc(-n3ccc(=O)cc3)cc2)=NN1` and `O=C1CSc2nc(Nc3ccc(N4CCOCC4)cc3)ncc2N1` cannot be ordered by melting point: 289 to 291 °C for the first, 288 to 290 °C for the second.

First: CN(C)CCCNC(=O)c1ccc(/C=C/c2ccc3c(=O)[nH]ncc3c2)cc1
Second: COC(=O)c1ccc(C(=O)NS(=O)(=O)c2ccc(C(=O)NCCc3ccc(OC)cc3)cc2)cn1
The melting point of the first is higher: 287 °C for the first, 240 to 242 °C for the second.

First: COc1ccc(C=Nc2ccc(S(=O)(=O)NC(C)(C)C)cc2)cc1F
Second: CCC1CC(=O)N(Cc2ccc(NS(C)(=O)=O)cc2)N=C1c1ccc(OC)c(OC)c1 (centres undefined)
The melting point of the first is higher: 129 to 131 °C for the first, 81 °C for the second.

Compared with `O=C1Nc2ccccc2N(C(=O)CN2CCCCC2CN2CCCCC2)c2ccccc21` (centres undefined), `c1ccc(C(=C2CCN(CCN3CCNCC3)CC2)c2ccccc2)cc1` is lower in melting point: 220 to 221 °C for the first, 73 to 75 °C for the second.

First: COc1c(N2CC(C)C(N)C(C)(C)C2)c(F)cc2c(=O)c(C(=O)O)cn(C3CC3)c12 (centres undefined)
Second: CCN1CCCC1CNC(=O)c1c(OC)c(Cl)cc(Br)c1OC (centres undefined)
The melting point of the first is higher: 218 to 220 °C for the first, 124 to 125 °C for the second.

Compared with `O=C(CN(C(=O)C(=O)N(CC(=O)OCc1ccccc1)S(=O)(=O)C(F)(F)F)S(=O)(=O)C(F)(F)F)OCc1ccccc1`, `O=C(O)c1cc(-c2ccc(OCc3ccccc3)cc2OCc2ccccc2)no1` is higher in melting point: 53 to 55 °C for the first, 192 to 193 °C for the second.

First: CCN(CC)c1nc2cc(C)nn2c2c1cnc1c2cnn1CC
Second: CCOCc1nc2c(N)nc3cccnc3c2n1CCCON=C1CCN(C)CC1
The melting point of the first is lower: 106 to 108 °C for the first, 111 to 112 °C for the second.

First: CN=c1[nH]c2ccccc2c2nc(-c3ccc[nH]3)nn12
Second: BrCc1ccc2c(-c3ccccc3)onc2c1
The melting point of the first is higher: 220 to 221 °C for the first, 127 to 128 °C for the second.

First: Fc1ccccc1C1=CCc2nnc(Br)n2-c2ccc(Cl)cc21
Second: O=C1Cc2ccccc2Sc2cc(Cl)c(F)cc21
The melting point of the first is higher: 222 °C for the first, 125 to 126 °C for the second.

First: Cc1ccc(S(=O)(=O)c2ncc(I)cn2)cc1
Second: Cc1ccc(S(=O)(=O)ON=C2CC(c3ccccc3)Oc3ccccc32)cc1 (centres undefined)
The melting point of the first is lower: 138 to 139 °C for the first, 141 to 143 °C for the second.

First: O=C(O)c1ccc(NCCCCCCOc2ccccc2)cc1
Second: O=C(CCOCc1ccccc1)Nc1ccc(C(=O)Nc2ccccc2[N+](=O)[O-])cc1
The melting point of the first is higher: 168 to 170 °C for the first, 140 °C for the second.

First: O=C(CCc1ccccc1)NC(NC(=S)Nc1cccc([N+](=O)[O-])c1)C(Cl)(Cl)Cl (centres undefined)
Second: O=C(CCl)Nc1ccc2c(c1NC(=O)COc1ccccc1)C(=O)c1ccccc1C2=O
The melting point of the first is lower: 171 to 173 °C for the first, 217 to 218 °C for the second.

First: CCCc1cc(NC(=O)N2CCN(c3ccccc3OC)CC2)c(OC)nc1C
Second: CCOC(=O)CCCCn1c(=O)n(CCN2CCN(c3ccccc3OC)CC2)c(=O)c2sccc21
The melting point of the first is lower: 109 to 110 °C for the first, 118 to 119 °C for the second.

First: CC1(C(=O)O)COC2(CCCCCCC2)OC1
Second: CC(C)CC(CC(=O)NO)C(=O)N[C@H]1Cc2cn(c3ccccc23)CCCCCCCNC1=O (some centres undefined)
The melting point of the first is lower: 120 to 122 °C for the first, 197 to 201 °C for the second.

First: COC(=O)CCCNC(=O)CNS(=O)(=O)c1ccc2ccccc2c1
Second: CC(=O)C1C(=O)N(C(=O)Nc2ccc(F)cc2)c2ccccc21 (centres undefined)
The melting point of the first is higher: 187 to 189 °C for the first, 181 to 182 °C for the second.

First: CCCc1c(OCCCCSc2nnc(SCC(=O)O)s2)ccc(C(C)=O)c1O
Second: CCOC(=O)CC[C@H](NC(=O)c1ccc(CCCCc2c(N)nc(N)nc2O)cc1)C(=O)OCC
The melting point of the first is higher: 123 to 124 °C for the first, 75 to 76 °C for the second.

First: O=C1CCc2c(Cc3ccc(Cl)cc3)cccc21
Second: O=C(NNc1ccc(Cl)cc1)c1cnc2ccc(I)cc2c1O
The melting point of the first is lower: 87 to 88 °C for the first, 250 to 252 °C for the second.

First: Cc1cc(N)c(C)c(/C=C/C(=O)O)c1
Second: CCOC(=O)C=Cc1c[nH]c2cnc(-n3cncn3)cc12
The melting point of the first is lower: 185 °C for the first, 235 to 238 °C for the second.

Compared with `CC(=O)C(=NNc1cccc2ccccc12)Sc1ccc(C(C)C)cc1`, `CNC(=NS(=O)(=O)c1ccc(C)cc1)Nc1cc(C(C)c2ccc(-c3ccccc3)c(F)c2)on1` (centres undefined) is lower in melting point: 130 to 133 °C for the first, 125 to 127 °C for the second.

Compared with `O=C1NN=C(C=Cc2ccc([N+](=O)[O-])cc2)CS1`, `CC1SC(=O)NN=C1c1ccc2c(c1)C(=NNc1ccc(C(C)(C)C)cc1)C(=O)N2` (centres undefined) is higher in melting point: 231 to 240 °C for the first, 299 °C for the second.

First: COC(=N)NC(=O)NC(C)C
Second: COC(=O)CN(CC(=O)OC)c1cc(O)cc(O)c1
The melting point of the first is lower: 64 to 67 °C for the first, 200 to 202 °C for the second.

First: O=C(OCc1ccccc1)N1CCc2c(sc3nc(CN4C(=O)CCC4=O)c(Cl)c(-c4ccc(C(F)(F)F)cc4)c23)C1
Second: O=c1ccn(-c2cccc(C(F)(F)F)c2)nc1-n1ccnc1-c1ccccc1
The melting point of the first is lower: 201 to 202 °C for the first, 204 to 205 °C for the second.

Compared with `CC(Cn1cncn1)(O[Si](C)(C)C)c1ccc(F)cc1F` (centres undefined), `N#Cc1ccc(Cn2cncn2)cc1-c1ccc(OS(N)(=O)=O)cc1` is higher in melting point: 51 to 53 °C for the first, 159 to 162 °C for the second.

First: C=C(CC)C(=O)c1ccc(OC(C)(C)C(=O)O)c(Cl)c1Cl
Second: C=C(C(=O)c1ccc(OC)c(Cl)c1Cl)c1ccc(Br)cc1
The melting point of the first is lower: 88 to 89 °C for the first, 110 to 116 °C for the second.

Compared with `CCc1ncnc(O)c1F`, `CCCCOc1ccc2c(O)c(C(=O)NCCO)nc(Cl)c2c1` is higher in melting point: 112 to 114 °C for the first, 118 to 120 °C for the second.

First: NC(=O)[C@H](O)[C@@H](O)CO
Second: NCCC1CCC(C(O)(P(=O)(O)O)P(=O)(O)O)CC1 (centres undefined)
The melting point of the first is lower: 105 to 107 °C for the first, 226 to 230 °C for the second.

First: CC1(C)CC(=O)c2c(C3CC3)sc(-c3nccs3)c2C1
Second: CCCn1nc(C2CC2)c(C(=O)OCC)c1Cc1ccc(-c2ccccc2S(N)(=O)=O)cc1
The melting point of the first is higher: 103 to 105 °C for the first, 70 to 77 °C for the second.

First: COc1cc2c(=O)[nH]c3c(c2cc1OC)c1ccccc1n3C
Second: COc1cc2c(cc1OC)N(C)C(=O)CN=C2c1cccc(C(C)=O)c1
The melting point of the first is higher: over 310 °C for the first, 148 to 150 °C for the second.

Compared with `COc1ccc2c(c1)C(c1ccncc1)Nc1cc(Cl)ccc1O2` (centres undefined), `Nc1cnccc1Oc1ccc(Cl)cc1` is lower in melting point: 186 to 188 °C for the first, 104 to 106 °C for the second.

Compared with `COc1cc(C(C)C)nn1C`, `COc1ccc(-c2nc3cnccc3[nH]2)c(OC(C)C)c1` is higher in melting point: 114 to 115 °C for the first, 220 °C for the second.

First: Nc1cc(Cl)c(Cl)c(Cl)c1N
Second: S=C1CSc2cccc(Cl)c2N1
The melting point of the first is lower: 109 to 111 °C for the first, 138 to 140 °C for the second.

First: N#Cc1cc(-c2cc(C(F)F)c3cn[nH]c3n2)ccc1N
Second: Cc1ccc(Sc2cncc3sc(C(=O)NN)cc23)cc1
The melting point of the first is higher: 263 °C for the first, 176 to 178 °C for the second.

First: CCN(CC)C(=O)CN1C(=O)C(NC(=O)Nc2ccccc2Cl)N=C(c2ccccc2)c2ccccc21 (centres undefined)
Second: COC(=O)c1ccccc1-c1ccc(CNc2nc(Cl)nc3ccsc23)cc1
The melting point of the first is lower: 173 to 175 °C for the first, 177 to 182 °C for the second.

First: CNC(=O)[C@@H](C[C@H](O)[C@H](CC1CCCCC1)NC(=O)[C@H](Cc1cscn1)NC(=O)[C@@H](CC(=O)N1CCOCC1)Cc1ccccc1)C(C)(C)O
Second: Cn1ncc(C(=O)N2CCOCC2)c1C(=O)Nc1ccc2nc(-c3cccnc3)nn2c1
The melting point of the first is lower: 150 to 152 °C for the first, 229 °C for the second.

First: CCCCCCCCCCCCCCCCCCOc1ccc(OCc2ccccc2)c(C(=O)N(CC(=O)OCC)CC(=O)OCC)c1
Second: CCCCCCC[C@H]1C(=O)OC[C@H](NC(=O)c2nccc(OC)c2O)C(=O)O[C@@H](C)[C@@H]1OC(=O)C(C)C
The melting point of the first is lower: 61 to 62 °C for the first, 131 to 134 °C for the second.

First: Cc1c(N2CCCCC2)ccnc1CSc1nc2cc(N3CCCCC3)c(F)cc2[nH]1
Second: Cc1ccc(S(=O)(=O)Nc2ccc3nc(N4CCN(C)CC4)c(N4CCN(C)CC4)nc3c2)cc1
The melting point of the first is lower: 161 to 162 °C for the first, 234 to 237 °C for the second.

Compared with `Cc1nc(C)n(-c2cc(C)c3[nH]c(=O)ccc3c2)c1[N+](=O)[O-]`, `COc1ccc2c(c1)c(-c1cc3c(OC)ccnc3[nH]1)cn2C` is higher in melting point: 244 to 247 °C for the first, 288 to 289 °C for the second.

Compared with `CC(=O)C1CCC2C3CCC4CC(OC(=O)C(Cl)(Cl)Cl)CCC4(C)C3C(=O)CC12C` (centres undefined), `O=C(O)CN1CCN(Cc2ccccc2)C1=O` is higher in melting point: 126 to 127 °C for the first, 132 to 133 °C for the second.

First: FC(F)(F)c1cccc(CO[C@H]2CO[C@@H](c3ccccc3)OC2)c1
Second: CC(C)c1cccc(C(C)C)c1NC(=NCc1cccc(CCl)c1)Nc1c(C(C)C)cccc1C(C)C
The melting point of the first is lower: 115 to 116 °C for the first, 122 to 124 °C for the second.

Compared with `CNc1c(S(=O)(=O)C(F)(F)F)c(C#N)nn1-c1c(Cl)cc(C(F)(F)F)cc1Cl`, `CCCS(=O)(=O)NC(=N[N+](=O)[O-])NCc1cnc(Cl)s1` is lower in melting point: 227 °C for the first, 105 to 107 °C for the second.

First: CN(C)C=Nc1ncc[nH]1
Second: Cc1nc(S(C)(=O)=O)oc1C
The melting point of the first is higher: 146 to 147 °C for the first, 42 °C for the second.

First: N#CC1CN1C(=O)c1ccco1 (centres undefined)
Second: CCCCc1oc2ccccc2c1C(=O)Nc1ccc(-c2ccc(OCc3nnn[nH]3)cc2)cc1
The melting point of the first is lower: 73 to 76 °C for the first, 210 to 212 °C for the second.

For `COc1cc(C(N)=O)cc([N+](=O)[O-])c1OC`, the melting point was 182 to 185 °C.
